Assay [1] deals with T1, Autotaxin (Homo sapiens, UniProt Q13822). Description: Inhibition of ATX (unknown origin) using FS-3 as substrate preincubated with compound for 10 mins followed by substrate addition measured for 30 mins by fluorometric kinetic assay.
A short description of assay [2]: Inhibition of collagen formation in oleic and palmitic acid induced human Huh-7 cells cocultured with human LX2 cells at 1 to 10 uM incubated for […] by Sirius Red staining based analysis. Conditions: dose 1-10 µM. The assay is classed as functional.
For assay [3], the system named is LX-2. Description: Inhibition of cell migration in TGF-beta induced human LX2 cells by measuring cell uncovered area at 0.3 to 3 uM incubated for 24 hrs by wound healing assay. Conditions: dose 0.3-3 µM. The assay is classed as functional.
The test system of assay [4] is Huh-7. Kind of assay: Anti-steatosis activity against oleic acid induced human Huh-7 cells assessed as reduction of lipid accumulation at 1 to 10 uM incubated for 24 hrs by […] based fluorescence microscopic analysis. Also noted: scale not given: the % may be the effect or the level left. The assay is classed as functional. Conditions: dose 1-10 µM.
Assay [5] concerns the target T1, Autotaxin. Description: Inhibition of ATX (unknown origin) using FS-3 as substrate by measuring fold change preincubated with compound for 10 mins followed by substrate addition measured for 30 mins by fluorometric kinetic assay compared to 3-(2-(benzyloxy)benzylidene)-1-(3-chlorophenyl)pyrrolidine-2,5-dione. As to conditions: time 40.0 min.

Structures are written as SMILES.

Here are results for ten compounds from ChEMBL document CHEMBL6074663, “Design, synthesis and evaluation of 3-(2-(substituted benzyloxy)benzylidene) pyrrolidine-2,5-dione derivatives for novel ATX inhibitor” (Bioorg Med Chem Lett, 2024).

The term IC50 denotes the concentration at which inhibition is half-maximal.

As for `CCCOC(=O)c1ccc(COc2ccccc2/C=C2/CC(=O)N(c3cccc(Cl)c3)C2=O)cc1`, the IC50 in assay [1] amounted to 320 nM. On the same count and under the same terms, for `O=C(Oc1cccc2ccccc12)c1ccc(COc2ccccc2/C=C2/CC(=O)N(c3cccc(Cl)c3)C2=O)cc1` the value was above 10000 nM.

Take `COC(=O)c1ccc(COc2ccccc2/C=C2\CC(=O)N(c3cccc(Cl)c3)C2=O)cc1`: the IC50 in assay [1] turned out to be 130 nM. In addition, the “inhibition (INH)” value was determined as 35% in assay [2] and 23% in assay [3]. Besides, the Activity in assay [4] worked out at 42%.

`N#Cc1ccc(COc2ccccc2/C=C2/CC(=O)N(c3cccc(Cl)c3)C2=O)cc1`: the IC50 in assay [1] is 280 nM. Further, the fold change (FC) in assay [5] is 3.5. As for `O=C1C/C(=C/c2ccccc2OCc2ccccc2)C(=O)N1c1cccc(Cl)c1`, the IC50 in assay [1] came to 980 nM. Same read-out and setting: for `NC(=O)c1ccc(COc2ccccc2/C=C2/CC(=O)N(c3cccc(Cl)c3)C2=O)cc1` the value was 240 nM. Same read-out and setting: the result for `CC(C)OC(=O)c1ccc(COc2ccccc2/C=C2/CC(=O)N(c3cccc(Cl)c3)C2=O)cc1` reads 270 nM. Still for that read-out and setting: for `O=C(O)c1ccc(COc2ccccc2/C=C2/CC(=O)N(c3cccc(Cl)c3)C2=O)cc1` the value was 9390 nM; for `O=C(Oc1ccccc1)c1ccc(COc2ccccc2/C=C2/CC(=O)N(c3cccc(Cl)c3)C2=O)cc1`, 2040 nM. Turning to `CN(C)C(=O)c1ccc(COc2ccccc2/C=C2/CC(=O)N(c3cccc(Cl)c3)C2=O)cc1`, the IC50 in assay [1] is above 10000 nM.
